Test [1] in a line: Inhibition of NS5A in HCV genotype 2a JFH-1 infected in human Huh7.5.1 cells assessed as reduction in viral replication after 3 days by luciferase reporter gene assay. For orientation: Reporter assays use an easily measured gene product as a stand-in for the process of interest.
Test [2] can be described thus: Inhibition of NS5A in HCV genotype 6a infected in human HuH7 replicon cells expressing HCV genotype 1b chimeric replicon assessed as reduction in viral replication after 3 days by luciferase reporter gene assay.
The nature of test [3]: Inhibition of NS5A in HCV genotype 1a infected in human HuH7 replicon cells assessed as reduction in viral replication after 3 days by luciferase reporter gene assay. For orientation: In antiviral work, replicon cells carry a viral genome segment that copies itself.
Test [4] is described as follows: Inhibition of NS5A in HCV genotype 3a infected in human HuH7 replicon cells expressing HCV genotype 1b chimeric replicon assessed as reduction in viral replication after 3 days by luciferase reporter gene assay.
The nature of test [5]: Inhibition of NS5A in HCV genotype 5a infected in human HuH7 replicon cells expressing HCV genotype 1b chimeric replicon assessed as reduction in viral replication after 3 days by luciferase reporter gene assay.
The nature of test [6]: Inhibition of NS5A in HCV genotype 1b infected in human HuH7 replicon cells assessed as reduction in viral replication after 3 days by luciferase reporter gene assay.

The EC50 is the midpoint of the concentration-response curve. Consider `COC(=O)N[C@H](C(=O)N1CCC[C@H]1C(=O)Nc1ccc([C@@H]2CC[C@@H](c3ccc(NC(=O)[C@@H]4CCCN4C(=O)[C@@H](NC(=O)OC)C(C)C)cc3)N2c2ccc([Si](C)(C)C(C)(C)C)cc2)cc1)C(C)C`, for which the EC50 in test [1] was 1.1 pM; in test [2], 925 pM; in test [3], 11 pM; in test [4] it was 12 pM; in test [5], 1 pM; in test [6] it was 3 pM.

In the case of `COC(=O)N[C@H](C(=O)N1CCC[C@H]1C(=O)Nc1ccc([C@@H]2CC[C@@H](c3ccc(NC(=O)[C@@H]4CCCN4C(=O)[C@@H](NC(=O)OC)C(C)C)cc3)N2c2ccc([Si](C)(C)C)cc2)cc1)C(C)C`, the EC50 turned out to be 2.5 pM in test [1]; 1410 pM in test [2]; 14 pM in test [3]; 38 pM in test [4]; 1 pM in test [5]; 4 pM in test [6].

As to `COC(=O)N[C@H](C(=O)N1CCC[C@H]1C(=O)Nc1ccc([C@H]2CC[C@H](c3ccc(NC(=O)[C@@H]4CCCN4C(=O)[C@@H](NC(=O)OC)C(C)C)cc3)N2c2ccc([Si](C)(C)C)cc2)cc1)C(C)C`, the EC50 in test [3] came to 118 pM; in test [6], 7 pM.

In the case of `COC(=O)N[C@H](C(=O)N1CCC[C@H]1C(=O)Nc1ccc([C@H]2CC[C@@H](c3ccc(NC(=O)[C@@H]4CCCN4C(=O)[C@@H](NC(=O)OC)C(C)C)cc3)N2c2ccc([Si](C)(C)C)cc2)cc1)C(C)C`, the EC50 in test [3] was greater than 500 pM; in test [6], 8 pM.

Regarding `CC[Si](CC)(CC)c1ccc(N2[C@@H](c3ccc(NC(=O)[C@@H]4CCCN4C(=O)[C@@H](NC(=O)OC)C(C)C)cc3)CC[C@H]2c2ccc(NC(=O)[C@@H]3CCCN3C(=O)[C@@H](NC(=O)OC)C(C)C)cc2)cc1`, the values for the EC50 in test [3] and in test [6] were greater than 500 pM and 7 pM, respectively.

For the compound `CC[Si](CC)(CC)c1ccc(N2[C@@H](c3ccc(NC(=O)[C@@H]4CCCN4C(=O)[C@@H](NC(=O)OC)C(C)C)cc3)CC[C@@H]2c2ccc(NC(=O)[C@@H]3CCCN3C(=O)[C@@H](NC(=O)OC)C(C)C)cc2)cc1`, the figures for the EC50 in test [3] and in test [6] were 41 pM and 6 pM, respectively.

Consider `CC[Si](CC)(CC)c1ccc(N2[C@H](c3ccc(NC(=O)[C@@H]4CCCN4C(=O)[C@@H](NC(=O)OC)C(C)C)cc3)CC[C@H]2c2ccc(NC(=O)[C@@H]3CCCN3C(=O)[C@@H](NC(=O)OC)C(C)C)cc2)cc1`, for which the EC50 in test [2] stood at 445 pM; in test [3], 7 pM; in test [4] it was 10 pM; in test [5], 1 pM; in test [6] it was 3 pM.

Take `COC(=O)N[C@H](C(=O)N1CCC[C@H]1C(=O)Nc1ccc([C@@H]2CC[C@@H](c3ccc(NC(=O)[C@@H]4CCCN4C(=O)[C@@H](NC(=O)OC)C(C)C)cc3)N2c2ccc(C(C)(C)C)cc2)cc1)C(C)C` [CHEBI:85183]: the EC50 in test [1] is 2.6 pM; in test [2], 3390 pM; in test [3] it was 30 pM; in test [4], 86 pM; in test [5] it was 4 pM; in test [6] it was 5 pM.

The values above are taken from BindingDB's records for doi:10.1016/j.ejmech.2018.02.025 (Chia Tai Tianqing Pharmaceutical Group, 2018).
